# Assay results: ChEMBL document CHEMBL4261565, “A systematic analysis of atomic protein-ligand interactions in the PDB” (Medchemcomm, 2017)
# Biological target: Coagulation factor X (Homo sapiens, UniProt P00742)
# Assay: Inhibition of human factor 10a using […] as substrate by spectrophotometric method
# Coagulation factor X, sequence (P00742 41-179 limits assumed): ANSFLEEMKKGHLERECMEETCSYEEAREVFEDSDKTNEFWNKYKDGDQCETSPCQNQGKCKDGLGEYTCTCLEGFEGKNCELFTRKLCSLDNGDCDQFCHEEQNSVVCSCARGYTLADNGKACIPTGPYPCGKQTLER
# Coagulation factor X, sequence (P00742 235-488 limits assumed): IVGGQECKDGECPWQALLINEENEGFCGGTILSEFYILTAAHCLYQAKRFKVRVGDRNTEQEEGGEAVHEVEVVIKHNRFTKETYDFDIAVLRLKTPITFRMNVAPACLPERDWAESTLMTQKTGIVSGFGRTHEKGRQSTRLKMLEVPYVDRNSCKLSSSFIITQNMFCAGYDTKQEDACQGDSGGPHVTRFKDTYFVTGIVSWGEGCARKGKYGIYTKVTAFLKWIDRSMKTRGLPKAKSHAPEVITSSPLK
row,Compound,Ki
1,NCCCN1C(=O)[C@@H]2[C@H](C1=O)[C@H](c1cc(-c3ccc(Cl)s3)on1)N1CCC[C@@H]21 (racemic),9800 nM
2,CNCCCN1C(=O)[C@@H]2[C@H](C1=O)[C@H](c1cc(-c3ccc(Cl)s3)on1)N1CCC[C@@H]21 (racemic),911 nM

# These reach a lower Ki. Values come first.
row,Ki,Compound
1,9 nM,C[N+](C)(C)CCCN1C(=O)[C@@H]2[C@H](C1=O)[C@H](c1cc(-c3ccc(Cl)s3)on1)N1CCC[C@@H]21 (racemic)
2,550 nM,CC(C)(C)CCCN1C(=O)[C@@H]2[C@H](C1=O)[C@H](c1cc(-c3ccc(Cl)s3)on1)N1CCC[C@@H]21 (racemic)
3,56 nM,CN(C)CCCN1C(=O)[C@@H]2[C@H](C1=O)[C@H](c1cc(-c3ccc(Cl)s3)on1)N1CCC[C@@H]21 (racemic)
